These are literature values, as cited in patent publication US20140127295A1, “COMPOSITIONS, PROCESS OF PREPARATION OF SAID COMPOSITIONS AND METHOD OF TREATING INFLAMMATORY DISEASES” (priority 2011, published 2014).

The conditions of series [1]: in vivo.
For series [2] the following is noted: in mice.

As to `CCC(C)(C)C(=O)O[C@H]1C[C@@H](C)C=C2C=C[C@H](C)[C@H](CC[C@@H]3C[C@@H](O)CC(=O)O3)[C@H]21` [CW302, (1S,3R,7S,8S,8aR)-8-{2-[(4R)-4-hydroxy-6-oxooxan-2-yl]ethyl}-3,7-dimethyl-1,2,3,7,8,8a-hexahydronaphthalen-1-yl 2,2-dimethylbutanoate], in series [1], the Tmax was 1.9 h.
For `CCCc1nn(C)c2c(=O)[nH]c(-c3cc(S(=O)(=O)N4CCN(C)CC4)ccc3OCC)nc12` [CW305, 5-[2-ethoxy-5-(4-methylpiperazine-1-sulfonyl)phenyl]-1-methyl-3-propyl-1H,4H,7H-pyrazolo[4,3-d]pyrimidin-7-one], in series [1], the peak concentration (Cmax) is 440 ng/mL, the Tmax is 1 h and the T½ was 4 to 5 h. Also, the maximum tolerated dose in series [2] is listed as 8.5 mg/kg.
